What was measured:
Rattus norvegicus [1] = assay: Anti-inflammatory activity in Rattus norvegicus Wistar (rat) assessed as inhibition of carrageenan-induced edema volume at 63.2 mg/kg, po measured after 120 min; format: functional; settings: 2 h
Rattus norvegicus [2] = assay: Anti-inflammatory activity in Rattus norvegicus Wistar (rat) assessed as inhibition of carrageenan-induced edema volume at 63.2 mg/kg, po measured after 90 min; format: functional; settings: 1.5 h
[3] = Prodrug conversion in acetate buffer assessed as half-life for hydrolysis at pH 4; format: physicochemical
Rattus norvegicus [4] = assay: Gastrointestinal toxicity in Rattus norvegicus Wistar (rat) assessed as ulcer at 63.2 mg/kg, po; format: organism-based; parameters: dose 63.2 mg/kg, route oral; settings: in vivo
Mus musculus [5] = assay: Analgesic activity in Mus musculus (mouse) assessed as inhibition of acetic acid-induced writhing at 63.2 mg/kg, po pretreated 1 hr before acetic acid challenge; format: functional
[6] = Prodrug conversion in phosphate buffer assessed as half-life for hydrolysis at pH 7.4; format: physicochemical
[7] = Prodrug conversion in acetate buffer assessed as half-life for hydrolysis at pH 5; format: physicochemical
Rattus norvegicus [8] = assay: Anti-inflammatory activity in Rattus norvegicus Wistar (rat) assessed as inhibition of carrageenan-induced edema volume at 63.2 mg/kg, po measured after 60 min; format: functional; settings: 1 h
[9] = Prodrug conversion in acetate buffer assessed as half-life for hydrolysis at pH 3; format: physicochemical
Rattus norvegicus [10] = assay: Anti-inflammatory activity in Rattus norvegicus Wistar (rat) assessed as inhibition of carrageenan-induced edema volume at 63.2 mg/kg, po measured after 30 min; format: functional; settings: 0.5 h
Rattus norvegicus [11] = assay: Gastrointestinal toxicity in Rattus norvegicus Wistar (rat) assessed as ulcer at 62.8 mg/kg, po; format: organism-based; parameters: dose 62.8 mg/kg, route oral; settings: in vivo
Rattus norvegicus [12] = assay: Anti-inflammatory activity in Rattus norvegicus Wistar (rat) assessed as inhibition of carrageenan-induced edema volume at 62.8 mg/kg, po measured after 30 min; format: functional; settings: 0.5 h
Rattus norvegicus [13] = assay: Anti-inflammatory activity in Rattus norvegicus Wistar (rat) assessed as inhibition of carrageenan-induced edema volume at 62.8 mg/kg, po measured after 60 min; format: functional; settings: 1 h
Rattus norvegicus [14] = assay: Anti-inflammatory activity in Rattus norvegicus Wistar (rat) assessed as inhibition of carrageenan-induced edema volume at 62.8 mg/kg, po measured after 90 min; format: functional; settings: 1.5 h
Mus musculus [15] = assay: Analgesic activity in Mus musculus (mouse) assessed as inhibition of acetic acid-induced writhing at 62.8 mg/kg, po pretreated 1 hr before acetic acid challenge; format: functional
Rattus norvegicus [16] = assay: Anti-inflammatory activity in Rattus norvegicus Wistar (rat) assessed as inhibition of carrageenan-induced edema volume at 62.8 mg/kg, po measured after 120 min; format: functional; settings: 2 h
Rattus norvegicus [17] = assay: Anti-inflammatory activity in Rattus norvegicus Wistar (rat) assessed as inhibition of carrageenan-induced edema volume at 66.0 mg/kg, po measured after 120 min; format: functional; settings: 2 h
Rattus norvegicus [18] = assay: Anti-inflammatory activity in Rattus norvegicus Wistar (rat) assessed as inhibition of carrageenan-induced edema volume at 66.0 mg/kg, po measured after 90 min; format: functional; settings: 1.5 h
Rattus norvegicus [19] = assay: Anti-inflammatory activity in Rattus norvegicus Wistar (rat) assessed as inhibition of carrageenan-induced edema volume at 66.0 mg/kg, po measured after 60 min; format: functional; settings: 1 h
Rattus norvegicus [20] = assay: Anti-inflammatory activity in Rattus norvegicus Wistar (rat) assessed as inhibition of carrageenan-induced edema volume at 66.0 mg/kg, po measured after 30 min; format: functional; settings: 0.5 h
Rattus norvegicus [21] = assay: Gastrointestinal toxicity in Rattus norvegicus Wistar (rat) assessed as ulcer at 66 mg/kg, po; format: organism-based; parameters: dose 66 mg/kg, route oral; settings: in vivo
Mus musculus [22] = assay: Analgesic activity in Mus musculus (mouse) assessed as inhibition of acetic acid-induced writhing at 66 mg/kg, po pretreated 1 hr before acetic acid challenge; format: functional
Mus musculus [23] = organism: Mus musculus; assay: animal or person; settings: po, read-out: INH
Description: Analgesic activity in Mus musculus (mouse) assessed as inhibition of acetic acid-induced writhing at 50 mg/kg, po pretreated 1 hr before acetic acid challenge

Rattus norvegicus [24] = organism: Rattus norvegicus; assay: animal or person; settings: Wistar, po, 1 h, read-out: INH
Description: Anti-inflammatory activity in Rattus norvegicus Wistar (rat) assessed as inhibition of carrageenan-induced edema volume at 50.0 mg/kg, po measured after 60 min

Rattus norvegicus [25] = organism: Rattus norvegicus; assay: animal or person; settings: Wistar, po, 2 h, read-out: INH
Description: Anti-inflammatory activity in Rattus norvegicus Wistar (rat) assessed as inhibition of carrageenan-induced edema volume at 50.0 mg/kg, po measured after 120 min

Rattus norvegicus [26] = organism: Rattus norvegicus; assay: animal or person; settings: Wistar, po, 1.5 h, read-out: INH
Description: Anti-inflammatory activity in Rattus norvegicus Wistar (rat) assessed as inhibition of carrageenan-induced edema volume at 50.0 mg/kg, po measured after 90 min

Rattus norvegicus [27] = organism: Rattus norvegicus; assay: animal or person; settings: Wistar, po, 0.5 h, read-out: INH
Description: Anti-inflammatory activity in Rattus norvegicus Wistar (rat) assessed as inhibition of carrageenan-induced edema volume at 50.0 mg/kg, po measured after 30 min

Compound: COc1ccc2cc(C(C)C(=O)OCC(OC(C)=O)C(OC(C)=O)C(OC(C)=O)C(/C=N/[C@@H](C)C(=O)O)OC(C)=O)ccc2c1 (stereo not given in full)
- inhibition in vivo at 63.2 mg/kg (Rattus norvegicus [1]): 67%
- inhibition in vivo at 63.2 mg/kg (Rattus norvegicus [2]): 49%
- t1/2 [3]: 15 h
- Activity (Rattus norvegicus [4]): Non-toxic
- inhibition in vivo at 63.2 mg/kg (Mus musculus [5]): 98.2%
- t1/2 [6]: 22 h
- t1/2 [7]: 77 h
- inhibition in vivo at 63.2 mg/kg (Rattus norvegicus [8]): 29%
- t1/2 [9]: 15 h
- inhibition in vivo at 63.2 mg/kg (Rattus norvegicus [10]): 62%

Compound: COc1ccc2cc(C(C)C(=O)OCC(OC(C)=O)C(OC(C)=O)C(OC(C)=O)C(/C=N/CC(=O)O)OC(C)=O)ccc2c1 (stereo not given)
- Activity (Rattus norvegicus [11]): Non-toxic
- inhibition in vivo at 62.8 mg/kg (Rattus norvegicus [12]): 58%
- inhibition in vivo at 62.8 mg/kg (Rattus norvegicus [13]): 37%
- t1/2 [3]: 44 h
- t1/2 [6]: 25 h
- inhibition in vivo at 62.8 mg/kg (Rattus norvegicus [14]): 58%
- t1/2 [7]: 88 h
- inhibition in vivo at 62.8 mg/kg (Mus musculus [15]): 63.6%
- t1/2 [9]: 115 h
- inhibition in vivo at 62.8 mg/kg (Rattus norvegicus [16]): 76%

Compound: COc1ccc2cc(C(C)C(=O)OCC(OC(C)=O)C(OC(C)=O)C(OC(C)=O)C(/C=N/[C@H](C(=O)O)C(C)C)OC(C)=O)ccc2c1 (stereo not given in full)
- inhibition in vivo at 66 mg/kg (Rattus norvegicus [17]): 64%
- t1/2 [3]: 115 h
- t1/2 [6]: 19 h
- inhibition in vivo at 66 mg/kg (Rattus norvegicus [18]): 43%
- inhibition in vivo at 66 mg/kg (Rattus norvegicus [19]): 19%
- inhibition in vivo at 66 mg/kg (Rattus norvegicus [20]): 30%
- t1/2 [7]: 88 h
- t1/2 [9]: 44 h
- Activity (Rattus norvegicus [21]): Non-toxic
- inhibition in vivo at 66 mg/kg (Mus musculus [22]): 63.6%

Compound: COc1ccc2cc([C@H](C)C(=O)O)ccc2c1 [NAPROXEN]
- inhibition in vivo at 50 mg/kg (Mus musculus [23]): 61.4%
- inhibition in vivo at 50 mg/kg (Rattus norvegicus [24]): 32%
- inhibition in vivo at 50 mg/kg (Rattus norvegicus [25]): 58%
- inhibition in vivo at 50 mg/kg (Rattus norvegicus [26]): 42%
- inhibition in vivo at 50 mg/kg (Rattus norvegicus [27]): 10%
